Data taken from ChEMBL document CHEMBL2375263, “Identification and design of a novel series of MGAT2 inhibitors” (Bioorg Med Chem Lett, 2013).

Key:
[1] = target: T1, Acyl-CoA wax alcohol acyltransferase 1 (Homo sapiens, UniProt Q58HT5); experiment: Inhibition of human recombinant AWAT1 expressed in insect cell membrane using palmitoleyl alcohol and [14C]stearoyl coenzyme A as substrate after 10 to 15 mins by liquid scintillation counting
T1 sequence (Q58HT5 whole entry): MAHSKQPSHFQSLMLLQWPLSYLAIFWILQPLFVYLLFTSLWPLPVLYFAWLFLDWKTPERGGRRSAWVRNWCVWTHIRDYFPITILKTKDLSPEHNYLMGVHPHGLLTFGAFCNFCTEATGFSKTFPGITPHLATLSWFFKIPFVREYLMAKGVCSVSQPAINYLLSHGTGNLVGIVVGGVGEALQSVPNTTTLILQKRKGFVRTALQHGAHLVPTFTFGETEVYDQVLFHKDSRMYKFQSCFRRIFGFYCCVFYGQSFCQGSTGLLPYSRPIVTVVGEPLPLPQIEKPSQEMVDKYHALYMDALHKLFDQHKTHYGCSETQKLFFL

[2] = Tmax in mouse at 100 mg/kg, po; format: ADME, organism-based; set-up: dose 100 mg/kg, route oral; details: in vivo
[3] = Inhibition of CYP450 (unknown origin); format: ADME; details: human
[4] = Time dependent inhibition of CYP450 (unknown origin); format: ADME; details: human
[5] = target: T2, Acyl-CoA wax alcohol acyltransferase 2 (Homo sapiens, UniProt Q6E213); experiment: Inhibition of human recombinant AWAT2 expressed in insect cell membrane using cetyl alcohol and [14C]oleoyl coenzyme A as substrate after 10 to 15 mins by liquid scintillation counting
T2 sequence (Q6E213 whole entry): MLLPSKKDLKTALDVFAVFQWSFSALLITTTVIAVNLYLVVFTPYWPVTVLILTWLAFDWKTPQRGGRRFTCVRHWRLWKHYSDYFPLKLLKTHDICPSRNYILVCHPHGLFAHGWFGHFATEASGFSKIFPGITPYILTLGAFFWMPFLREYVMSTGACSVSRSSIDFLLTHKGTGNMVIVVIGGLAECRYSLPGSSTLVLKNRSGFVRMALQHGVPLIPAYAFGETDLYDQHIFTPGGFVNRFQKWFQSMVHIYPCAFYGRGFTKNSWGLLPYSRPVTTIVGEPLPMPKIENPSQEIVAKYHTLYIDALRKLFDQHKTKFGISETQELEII

[6] = tested on: Mus musculus; experiment: Antiobesity activity in C57Bl6J mouse assessed as inhibition of corn oil-induced triacylglycerol excursion at 5 mg/kg, po administered at 30 mins post corn-oil challenge measured after 2 hrs by oral lipid tolerance test relative to control; format: functional
[7] = target: T3, Diacylglycerol O-acyltransferase 2 (Homo sapiens, UniProt Q96PD7); experiment: Inhibition of human recombinant DGAT2 using dioleoyl-sn-glycerol and [14C]oleoyl coenzyme A as substrate after 30 mins by liquid scintillation counting
T3 sequence (Q96PD7 whole entry): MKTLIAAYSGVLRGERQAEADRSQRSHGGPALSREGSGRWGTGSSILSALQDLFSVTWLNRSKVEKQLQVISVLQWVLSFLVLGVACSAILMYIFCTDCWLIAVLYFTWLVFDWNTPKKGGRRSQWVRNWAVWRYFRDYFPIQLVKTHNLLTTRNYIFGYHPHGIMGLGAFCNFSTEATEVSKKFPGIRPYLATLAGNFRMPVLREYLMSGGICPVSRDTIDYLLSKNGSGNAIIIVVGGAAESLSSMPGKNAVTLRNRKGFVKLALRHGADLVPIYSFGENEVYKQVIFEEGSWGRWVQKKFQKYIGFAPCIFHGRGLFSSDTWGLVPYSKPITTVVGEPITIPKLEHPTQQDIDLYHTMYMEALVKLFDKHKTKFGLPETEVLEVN

[8] = target: T4, Diacylglycerol O-acyltransferase 1 (Homo sapiens, UniProt O75907); experiment: Inhibition of human recombinant DGAT1 expressed in Sf9 cells using dioleoyl-sn-glycerol and [14C]oleoyl coenzyme A as substrate after 30 mins by liquid scintillation counting
T4 sequence (O75907 whole entry): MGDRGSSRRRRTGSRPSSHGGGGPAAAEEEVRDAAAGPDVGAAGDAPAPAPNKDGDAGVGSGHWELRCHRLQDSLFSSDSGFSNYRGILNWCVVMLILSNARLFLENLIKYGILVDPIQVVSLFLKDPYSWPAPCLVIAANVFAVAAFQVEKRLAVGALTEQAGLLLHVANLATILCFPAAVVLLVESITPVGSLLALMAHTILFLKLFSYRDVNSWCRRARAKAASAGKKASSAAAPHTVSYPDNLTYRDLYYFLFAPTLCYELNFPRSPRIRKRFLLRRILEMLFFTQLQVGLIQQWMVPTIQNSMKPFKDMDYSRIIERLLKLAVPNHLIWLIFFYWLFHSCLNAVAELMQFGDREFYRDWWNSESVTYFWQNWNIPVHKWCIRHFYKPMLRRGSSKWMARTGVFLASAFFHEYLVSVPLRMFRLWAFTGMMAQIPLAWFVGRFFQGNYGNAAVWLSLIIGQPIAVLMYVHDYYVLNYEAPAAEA

[9] = tested on: Mus musculus; experiment: Antiobesity activity in C57Bl6J mouse assessed as inhibition of corn oil-induced triacylglycerol excursion at 150 mg/kg, po administered at 30 mins post corn-oil challenge measured after 2 hrs by oral lipid tolerance test relative to control; format: functional
[10] = Apparent permeability from apical side to basolateral side of human Caco2 cells at 10 umol/l measured up to 120 mins by LCMS analysis; format: ADME, cell-based; details: Caco-2
[11] = Dissociation constant, pKa of the compound; format: physicochemical
[12] = Intrinsic clearance in human liver microsomes as 1 umol/l measured up to 30 mins by LC-MS analysis; format: ADME, Microsome; details: read-out: CLH
[13] = Lipophilicity, log D of the compound at pH 7.4; format: physicochemical; details: buffer
[14] = tested on: Liver microsomes; experiment: Ratio of compound-glutathione adduct formation to clozapine-glutathione adduct formation in human liver microsomes at 10 umol/l after 30 mins by glutathione trapping method; format: ADME, Microsome; details: 0.5 h, 10 µM

CC[C@]1(C)NC(=O)c2cc(S(=O)(=O)Nc3ccc(F)cc3F)ccc2NC1=O
IC50 [1]: > 100 µM
Tmax [2]: 30 min
inhibition (INH) [3]: Not Active
inhibition (INH) [4]: Not Active
IC50 [5]: > 100 µM
inhibition in vivo at 5 mg/kg [6]: 116%
IC50 [7]: > 10 µM
IC50 [8]: > 10 µM
inhibition in vivo at 150 mg/kg [9]: 68%
Papp A→B at 2 h, 10 µM [10]: 3.3 ×10⁻⁶ cm/s
pKa [11]: 7.3
microsomal CLint at 1 µM [12]: < 5 µL/min/mg

CC1(C)NC(=O)c2cc(S(=O)(=O)Nc3ccccc3)ccc2NC1=O
logD [13]: 1.6

O=C1NC2(CCCC2)C(=O)Nc2ccc(S(=O)(=O)Nc3ccc(Cl)cc3)cc21
logD [13]: 3

CCC1(CC)NC(=O)c2cc(S(=O)(=O)Nc3ccc(F)cc3F)ccc2NC1=O
logD [13]: 2.2

CCC1(CC)CNc2ccc(S(=O)(=O)Nc3ccc(F)cc3F)cc2C(=O)N1
IC50 [1]: > 100 µM
inhibition (INH) [3]: Not Active
inhibition (INH) [4]: Not Active
IC50 [5]: > 100 µM
IC50 [7]: > 10 µM
IC50 [8]: > 10 µM
Ratio [14]: 1.8
Papp A→B at 2 h, 10 µM [10]: 16 ×10⁻⁶ cm/s
pKa [11]: 8
microsomal CLint at 1 µM [12]: 40 µL/min/mg

CC[C@]1(C)NC(=O)c2cc(S(=O)(=O)Nc3ccc(C(F)(F)F)cc3)ccc2NC1=O
IC50 [1]: > 100 µM
inhibition (INH) [3]: Not Active
inhibition (INH) [4]: Not Active
IC50 [5]: > 100 µM
IC50 [7]: > 10 µM
IC50 [8]: > 10 µM
Papp A→B at 2 h, 10 µM [10]: 3.1 ×10⁻⁶ cm/s
pKa [11]: 6.9
microsomal CLint at 1 µM [12]: < 5 µL/min/mg

CC[C@]1(C)NC(=O)c2cc(S(=O)(=O)Nc3ccc(OC(F)F)cc3)ccc2NC1=O
IC50 [1]: > 100 µM
inhibition (INH) [3]: Not Active
inhibition (INH) [4]: Not Active
IC50 [5]: > 100 µM
IC50 [7]: > 10 µM
IC50 [8]: > 10 µM
Papp A→B at 2 h, 10 µM [10]: 1.1 ×10⁻⁶ cm/s
pKa [11]: 7.9
microsomal CLint at 1 µM [12]: 2.8 µL/min/mg

CCC1(C)NC(=O)c2cc(S(=O)(=O)Nc3ccc(OC(F)F)cc3)ccc2NC1=O (racemic)
logD [13]: 2.3

CCC1(C)NC(=O)c2cc(S(=O)(=O)Nc3ccc(F)cc3F)ccc2NC1=O (racemic)
logD [13]: 1.8

CCC1NC(=O)c2cc(S(=O)(=O)Nc3ccccc3)ccc2NC1=O (racemic)
logD [13]: 1.6

CCCC1(C)NC(=O)c2cc(S(=O)(=O)Nc3ccc(F)cc3F)ccc2NC1=O (racemic)
logD [13]: 2.2

CCC1(C)NC(=O)c2cc(S(=O)(=O)N(C)c3ccccc3)ccc2NC1=O (racemic)
IC50 [1]: > 100 µM
inhibition (INH) [3]: Not Active
inhibition (INH) [4]: Not Active
IC50 [5]: > 100 µM
IC50 [7]: > 10 µM
IC50 [8]: > 10 µM
Ratio [14]: 0
Papp A→B at 2 h, 10 µM [10]: 36 ×10⁻⁶ cm/s
microsomal CLint at 1 µM [12]: 221 µL/min/mg

CCC1(C)NC(=O)c2cc(S(=O)(=O)Nc3ccc(Cl)cc3)ccc2N(C)C1=O (racemic)
IC50 [1]: > 100 µM
inhibition (INH) [3]: Not Active
inhibition (INH) [4]: Not Active
IC50 [5]: > 100 µM
IC50 [7]: > 10 µM
IC50 [8]: > 10 µM
Papp A→B at 2 h, 10 µM [10]: 20 ×10⁻⁶ cm/s
pKa [11]: 7.9
microsomal CLint at 1 µM [12]: 7 µL/min/mg

CCC1(C)C(=O)Nc2ccc(S(=O)(=O)Nc3ccc(F)cc3F)cc2C(=O)N1C (racemic)
IC50 [1]: > 100 µM
inhibition (INH) [3]: Not Active
inhibition (INH) [4]: Not Active
IC50 [5]: > 100 µM
IC50 [7]: > 10 µM
IC50 [8]: > 10 µM
Papp A→B at 2 h, 10 µM [10]: 8.1 ×10⁻⁶ cm/s
pKa [11]: 7.1
microsomal CLint at 1 µM [12]: 9 µL/min/mg

CCC1(C)NC(=O)c2cc(S(=O)(=O)Nc3ccccc3)ccc2NC1=O (racemic)
IC50 [1]: > 100 µM
logD [13]: 1.9
inhibition (INH) [3]: Not Active
inhibition (INH) [4]: Not Active
IC50 [5]: > 100 µM
IC50 [7]: > 10 µM
IC50 [8]: > 10 µM
Papp A→B at 2 h, 10 µM [10]: 2.4 ×10⁻⁶ cm/s
pKa [11]: 8.7
microsomal CLint at 1 µM [12]: < 5 µL/min/mg

CCC1(C)NC(=O)c2cc(S(=O)(=O)NCc3ccccc3)ccc2NC1=O (racemic)
logD [13]: 1.8

CCC1(C)NC(=O)c2cc(S(=O)(=O)NC3CCCCC3)ccc2NC1=O (racemic)
logD [13]: 2

CCC1(C)NC(=O)c2cc(S(=O)(=O)Nc3ccccc3Cl)ccc2NC1=O (racemic)
IC50 [1]: > 100 µM
logD [13]: 1.9
inhibition (INH) [3]: Not Active
inhibition (INH) [4]: Not Active
IC50 [5]: > 100 µM
IC50 [7]: > 10 µM
IC50 [8]: > 10 µM
Ratio [14]: 0.1
Papp A→B at 2 h, 10 µM [10]: 6.4 ×10⁻⁶ cm/s
pKa [11]: 7.2
microsomal CLint at 1 µM [12]: < 5 µL/min/mg

CCC1(C)NC(=O)c2cc(S(=O)(=O)Nc3ccc(C(F)(F)F)cc3)ccc2NC1=O (racemic)
logD [13]: 3.1

CCC1(C)NC(=O)c2cc(S(=O)(=O)Nc3ccc(OC)cc3)ccc2NC1=O (racemic)
IC50 [1]: > 100 µM
logD [13]: 1.8
inhibition (INH) [3]: Not Active
inhibition (INH) [4]: Not Active
IC50 [5]: > 100 µM
IC50 [7]: > 10 µM
IC50 [8]: > 10 µM
Papp A→B at 2 h, 10 µM [10]: 1.5 ×10⁻⁶ cm/s
pKa [11]: 5.6
microsomal CLint at 1 µM [12]: 16 µL/min/mg
